According to US12516019B2, “Amphoteric compounds” (Eastman Chemical Company, priority 2015, dated 2026):

Key:
Assay type in all cases: physicochemical
[1] = Water solubility: heated to a clear solution, cooled to ambient temperature; conditions: ambient temperature after heating to a clear solution
Procedure: To a vial was added 5.00 g of 3-((lauryloxycarbonylpropyl)-dimethylammonio)propanesulfonate and 10.00 g of water. The mixture was heated to 100° C. for an hour to afford a clear solution. The mixture was then allowed to cool to ambient temperature, at which point it was still homogeneous with no precipitate or gel.
To a vial was added 5.00 g of 3-((lauryloxycarbonylmethyl)-dimethylammonio)propanesulfonate and 45.00 g of water. The mixture was heated to 100° C. for an hour to afford a clear solution. The mixture was then allowed to cool to ambient temperature resulting in a white solid. The solid was recovered by filtration and dried in a vacuum oven at 55° C. in vacuo with a nitrogen sweep overnight to afford 4.58 g of 3-((lauryloxycarbonylmethyl)-dimethylammonio)propanesulfonate.
To a vial was added 10.00 g of 3-((4-laurylamino-4-oxobutyl)-dimethylammonio)propanesulfonate and 20.00 g of water. The mixture was heated to 100° C. for an hour to afford a clear solution. The mixture was then allowed to cool to ambient temperature, at which point it was still homogeneous with no precipitate or gel.
The solubility of 3-((2-laurylamino-2-oxoethyl)dimethylammonio)-propanesulfonate was determined by mixing 5.00 g of material with 45.00 g of water and heating to 85° C. for 1 h to afford a clear 10 wt % solution. The material was allowed to cool to ambient temperature to afford a precipitate. The precipitate was filtered, and the resulting solid was dried in vacuo at 50° C. with a nitrogen sweep for 3 days to afford 4.54 g of recovered 3-((2-laurylamino-2-oxoethyl)dimethylammonio)propanesulfonate.

[2] = Critical micelle concentration from surface tension (Wilhelmy plate, K100C Tensiometer); conditions: deionized water, ambient temperature
Procedure: The critical micelle concentration (CMC) is an important characteristic of a surfactant, and the CMC values were determined for the amphoteric compounds of formula 1. The CMC is defined as the concentration at which micelle formation first begins, and for surface tension determination of CMC, is typically assigned as the concentration of the intersection of two straight lines through the data, where the first line is the linear portion of the initial decline in surface tension with increasing surfactant concentration, and the second is the line of constant surface tension.
The critical micelle concentration was determined from plots of surface tension as a function of the logarithm of active surfactant concentration. Surface tension was measured via the Wilhelmy plate technique. In this method, the downward force of a rigorously clean plate probe that just contacts the liquid surface of the test sample is measured, and the surface tension is calculated from knowledge of the contact angle the liquid makes with the probe surface and the length of the probe plate.
A K100C Tensiometer (Kruss GmbH) was used to measure surface tension of solutions in a glass sample vessel. All measurements were made under ambient temperature conditions.
The tensiometer was equipped with a computer-controlled microdispensing and aspirating system to automate surfactant concentration adjustments of the test solution while maintaining constant solution volume between successive measurements. A roughened platinum plate probe was used. Cleanliness of probe, sample vessel, and microdispensing system was verified after cleaning between samples by measuring the surface tension of pure deionized water run through the system as a control.
100 mL of the 1 mg/L surfactant solution was added to the clean sample vessel and placed in the instrument. The plate probe was rinsed with deionized water and flame treated to combust off residual organic impurities, then mounted in position in the tensiometer. The experiment was initiated and run through the LabDesk version 3.2.2 (Kruss GmbH) software.
The surface tension measurements were run sequentially (and automatically) from most dilute to most concentrated by incrementally injecting known volume aliquots of the 10,000 mg/L surfactant solution into the sample, homogenizing the sample after injection by stirring for 30 seconds via a magnetic stir bar in the solution, and then aspirating out equal volume that was added to the sample vessel to keep the total sample volume constant for each measurement.
The sample vessel was then automatically moved into measurement position, and the surface tension measurement was made and recorded. This sequence was repeated until all concentrations had been measured.
The active surfactant concentration range spanned from 1 mg/L to 5000 mg/L over 50 concentration increments, equally spaced on a logarithmic scale over the full range of concentrations measured.
The sample at each concentration was measured 10 times, and the average of the 10 measures was plotted against the logarithm of the surfactant concentration.
After completing the full range of concentrations, the software provided best-fit lines to estimate CMC, and these regression lines were manually adjusted as needed to give the broadest range of linear behavior for each line.

[3] = Foam height test, Standard Test Method for Foaming Properties of Surface-Active Agents (ASTM 1173-07); conditions: 49° C.; for Foam height at time t = 0: t = 0 min; for Foam height at time t = 1: t = 1 min; for Foam height at time t = 2: t = 2 min; for Foam height at time t = 3: t = 3 min; for Foam height at time t = 4: t = 4 min; for Foam height at time t = 5: t = 5 min
Text: The Standard Test Method for Foaming Properties of Surface-Active Agents (ASTM 1173-07) for 0.1 wt % and 1.0 wt % was used to determine the foaming properties of the amphoteric compounds of the formula 1 described herein. This method generates foam under low-agitation conditions and is generally used for moderate- and high-foam surfactants. This test gathers data on initial foam height and foam decay. Foam decay provides information on foam stability.
The apparatus for carrying out this test includes a jacketed column and a pipet. The jacketed column serves as a receiver, while the pipet delivers the surface-active solution.
Solutions of each surface-active agent to be measured were prepared in borosilicate glass jars a day ahead of time, using ambient temperature ingredients, and were slowly rolled overnight to homogenize. The solutions were then removed from the rollers and equilibrated in a constant temperature bath (49° C.+/−1° C.) for at least 1 hour before measurement. The solution of the amphoteric compound to be tested was added to the receiver (50 mL) and to the pipet (200 mL). The pipet was positioned above the receiver and opened. As the solution fell and made contact with the solution in the receiver, foam was generated. When the pipet was empty, the time was noted and an initial foam height was recorded. The foam height was recorded each minute for five minutes. Exact size specifications for the glassware can be found in ASTM 1173-07. The foam height results for each amphoteric compound 1 and representative standards are listed below in Tables 1 (0.1% concentration) and 2 (1% concentration).

Row | solubility in water [1] | Critical micelle concentration (CMC) [2] [mg/L] | Foam height at time t = 0 ([3]; 1 g/L (0.1 weight %)) [mm] | Foam height at time t = 1 ([3]; 1 g/L (0.1 weight %)) [mm] | Foam height at time t = 2 ([3]; 1 g/L (0.1 weight %)) [mm] | Foam height at time t = 3 ([3]; 1 g/L (0.1 weight %)) [mm] | Foam height at time t = 4 ([3]; 1 g/L (0.1 weight %)) [mm] | Foam height at time t = 5 ([3]; 1 g/L (0.1 weight %)) [mm] | Foam height at time t = 0 ([3]; 10 g/L (1.0 weight %)) [mm] | Foam height at time t = 1 ([3]; 10 g/L (1.0 weight %)) [mm] | Foam height at time t = 2 ([3]; 10 g/L (1.0 weight %)) [mm] | Foam height at time t = 3 ([3]; 10 g/L (1.0 weight %)) [mm] | Foam height at time t = 4 ([3]; 10 g/L (1.0 weight %)) [mm] | Foam height at time t = 5 ([3]; 10 g/L (1.0 weight %)) [mm] | Structure (SMILES)
1 | 0.92 wt % |  |  |  |  |  |  |  |  |  |  |  |  |  | CCCCCCCCCCCCOC(=O)C[N+](C)(C)CCCS(=O)(=O)[O-] [Comparative Example 2, 3-((Lauryloxycarbonylmethyl)dimethylammonio)-propanesulfonate, reference compound]
2 | 1.02 wt % |  |  |  |  |  |  |  |  |  |  |  |  |  | CCCCCCCCCCCCNC(=O)C[N+](C)(C)CCCS(=O)(=O)[O-] [Comparative Example 4, 3-((2-Laurylamino-2-oxoethyl)dimethylammonio)-propanesulfonate, reference compound]
3 | greater than or equal to 33 wt % | 53.9 | 157 | 154 | 151 | 149 | 147 | 146 | 170 | 166 | 161 | 158 | 154 | 152 | CCCCCCCCCCCCOC(=O)CCC[N+](C)(C)CCCS(=O)(=O)[O-] [Example 5, 3-(3-(Lauryloxycarbonylpropyl)dimethylammonio)-propanesulfonate]
4 | greater than or equal to 33 wt % | 133.9 | 143 | 133 | 123 | 108 | 95 | 75 | 157 | 145 | 137 | 129 | 122 | 116 | CCCCCCCCCCCCNC(=O)CCC[N+](C)(C)CCCS(=O)(=O)[O-] [Example 14, 3-((4-Laurylamino-4-oxobutyl)dimethylammonio)-propanesulfonate]
